Columns and labels:
[1] = test system: passive cutaneous anaphylaxis reaction; test: Passive cutaneous anaphylaxis reaction; format: in vivo, rat; conditions: for % inhibition: reduction of coloured surface; for ED50: Rattus norvegicus
Experimental: The method used is that described by MOTA I in "Immunology" 1964, 7, Page 681. This method consists of sensitizing rats by 4 intradermal injections of 0.1 ml rat antiserum. The antiserum is obtained from animals treated with a mixture of ovalbumin and bordetella pertussis. 72 hours after sensitization, the product to be studied and 1 ml per rat (IV) of a 0.25% solution of Evans blue+5 mg/ml ovalbumin in an isotonic aqueous solution of […] sodium chloride are administered to the animals intravenously or intraperitoneally. Thirty minutes after this last injection, the animals are killed and one measures the surface area of each bruise corresponding to the point of injection of the antiserum. The results are expressed as a percentage reduction of the coloured surface. The results are given in Table III hereafter in which the results obtained with disodium cromoglycate (used intravenously) are also shown by way of comparison.

histamine [2] = test: Action with regard to a LD100 of histamine (protection from mortality); format: in vivo, guinea pig; conditions: for % protection: mortality caused by histamine, 1 hour
Experimental: Male tricolour guinea pigs weighing 400 to 500 g receive the product studied intraperitoneally. 30 minutes later, 800 γ/kg histamine, or the LD 100 in physiological solution are injected intraveinously.
The animals are kept under observation for 1 hour.

histamine [3] = test: Histamine bronchoconstrictor aerosol (antihistamine activity); format: in vivo, guinea pig; conditions: for % protection: animals without apneic crisis within 5 minutes
Experimental: Batches of 6 guinea pigs weighing from 200 to 250 g are exposed to an aerosol of 0.2% histamine in an aqueous solution, in a small chamber for 5 minutes. Two aerosols are used at an interval of 4 hours. The product tested is administered intraperitoneally 30 minutes before the use of the second aerosol.

Compound: O=C(O)c1cc(=O)c2c(OCC(O)COc3cccc4oc(C(=O)O)cc(=O)c34)cccc2o1 [Disodium cromoglycate, disodium cromoglycate]
- Mean Surface area ([1]; IV, 0.15 mg/kg, control 31.77 ± 3.16): 27.86 ± 3.82 mm^2
- % inhibition ([1]; IV, 0.15 mg/kg, T ns): 12%
- Mean Surface area ([1]; IV, 0.31 mg/kg, control 31.77 ± 3.16): 30.5 ± 2.59 mm^2
- % inhibition ([1]; IV, 0.31 mg/kg, T ns): 4%
- Mean Surface area ([1]; IV, 0.625 mg/kg, control 72.46 ± 4.37): 35.42 ± 5.02 mm^2
- % inhibition ([1]; IV, 0.625 mg/kg, T ***): 51%
- Mean Surface area ([1]; IV, 1.25 mg/kg, control 31.77 ± 3.16): 2.30 ± 1.07 mm^2
- % inhibition ([1]; IV, 1.25 mg/kg, T ***): 93%
- Mean Surface area ([1]; IV, 2.5 mg/kg, control 31.77 ± 3.16): 0.23 ± 0.23 mm^2
- % inhibition ([1]; IV, 2.5 mg/kg, T ***): 99%
- ED50 ([1]; iv): 0.64 mg/kg

Compound: CN1CCN(C2=Nc3ccccc3Sc3ncccc32)CC1 [Example 2, 5-(1'-methyl-4'-piperazinyl)pyrido[2,3-b][1,5]benzothiazepine]
- Mean Surface area ([1]; I.P., 0.125 mg/kg, control 66.7 ± 2.62): 54.4 ± 3.26 mm^2
- % inhibition ([1]; I.P., 0.125 mg/kg, T **): 18%
- Mean Surface area ([1]; I.P., 0.5 mg/kg, control 90.8 ± 5.92): 46.3 ± 3.78 mm^2
- % inhibition ([1]; I.P., 0.5 mg/kg, T ***): 49%
- Mean Surface area ([1]; I.P., 1 mg/kg, control 66.7 ± 2.62): 25.1 ± 3.45 mm^2
- % inhibition ([1]; I.P., 1 mg/kg, T ***): 62%
- ED50 ([1]; ip, I.P.): 0.57 mg/kg
- % protection (histamine [2]; 0.062 mg/kg intraperitoneally): 0%
- % protection (histamine [2]; 0.125 mg/kg intraperitoneally): 60%
- % protection (histamine [2]; 0.250 mg/kg intraperitoneally): 100%
- ED50 (histamine [2]; Cavia porcellus, ip, intraperitoneally, 800 γ/kg histamine (LD 100) intravenously): 0.12 mg/kg
- % protection (histamine [3]; 0.062 mg/kg intraperitoneally): 17%
- % protection (histamine [3]; 0.125 mg/kg intraperitoneally): 33%
- % protection (histamine [3]; 0.250 mg/kg intraperitoneally): 50%
- % protection (histamine [3]; 0.500 mg/kg intraperitoneally): 100%
- ED50 (histamine [3]; Cavia porcellus, ip, intraperitoneally, 0.2% histamine aerosol): 0.155 mg/kg

Source: patent US4163785A, “Benzothiazepine compounds and compositions” (Hexachimie, priority 1978, dated 1979)
